One molecule from article PMC3714338 (Analytical biochemistry, 2013) can be followed below.

The experiment concerns the target Mtb APR (adenosine 5′-phosphosulfate reductase; also MtbAPSR) (Mycobacterium tuberculosis, UniProt P9WIK3). Nature of the experiment: biochemical.

Mtb APR (adenosine 5′-phosphosulfate reductase; also MtbAPSR), sequence (P9WIK3 whole entry, looked up): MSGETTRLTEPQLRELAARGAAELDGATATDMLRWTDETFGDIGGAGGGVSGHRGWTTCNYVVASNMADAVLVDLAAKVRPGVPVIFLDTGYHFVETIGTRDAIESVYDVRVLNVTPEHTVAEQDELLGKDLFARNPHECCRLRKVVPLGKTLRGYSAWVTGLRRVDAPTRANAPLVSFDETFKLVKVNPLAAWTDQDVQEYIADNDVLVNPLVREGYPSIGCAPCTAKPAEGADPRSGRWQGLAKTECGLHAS

By Ki is commonly meant the equilibrium dissociation constant of an inhibitor or competing ligand from its target. A high value points to a looser hold on the target. Regarding `Nc1ncnc2c1ncn2[C@@H]1O[C@H](COP(=O)(O)OP(=O)(O)O)[C@@H](O)[C@H]1O` [ADP], the Ki was 83 ± 0.2 µM.
